Test results from patent publication EP0226508A1, “Indolo[3,2-c]quinoline derivatives, process for their preparation and their anti-tumour activity” (priority 1985, dated 1987).

Legend:
[1] = system: souris consanguines DBA₂ saines; assay: Acute toxicity, single intraperitoneal injection in healthy mice, mortality at day 7; assay type: in vivo; settings: single i.p. injection, 50 mg/kg
[2] = system: lignée tumorale leucémie L 1210; assay: In vitro cytotoxic activity on L 1210 leukemia cell culture (inhibition of cell proliferation); assay type: cell-based; settings: Mus musculus, L1210; L 1210 culture in exponential growth, 37°C, after 48 hours of contact; read-out: ID 50 (the source's name)
Protocol: 1) In vitro : (PAOLETTI et al., Chem. Biol. Interaction, 1979, 25, 45-58).
L'activité cytotoxique des composés de l'invention a été évaluée par des essais in vitro. Ces essais consistent à ajouter des concentrations croissantes du composé à tester à une culture cellulaire de la lignée tumorale leucémie L 1210 en phase exponentielle de croissance. Les cellules sont incubées à 37°C dans une étuve à CO₂ et comptées toutes les 24 heures. Le calcul de l'ID₅₀ (concentration du produit exprimée en micromole 1⁻¹ qui inhibe la prolifération cellulaire à 50 p. 100) est effectuée après 48 heures de contact. Ainsi déterminées les ID₅₀ des composés de l'invention sont rassemblées dans le tableau ci-après.

leucémie P 388 = assay: animal or person; assay type: in vivo, souris hybrides CDF 1; settings: for Nombre de survivants: survivors at J 40; for Variation pondérale en g: in vivo, ip
From the text: (§1) L'activité antitumorale a été testée in vivo sur différentes tumeurs selon le protocole général suivant:
(§2) Toutes les souris mâles ou femelles sont inoculées par voie intrapéritonéale au jour Jo avec une quantité déterminée de cellules tumorales viables, variable selon la tumeur.
(§3) Elles sont ensuite réparties en différents lots. Chaque lot correspondant aux animaux traités par le produit à tester à une dose déterminée est composé de 10 souris. Dans ce cas, le produit à tester est dissous dans l'eau distillée et il est administré, pendant n jours (J₁-Jn) variables selon le protocole choisi, par voie intrapéritonéale à raison de 0,1 ml par 10 g de poids des souris traitées, les doses du produit administré étant précisées dans les tableaux ci-dessous.
(§4) Le lot "contrôle négatif", correspondant aux animaux qui ne sont pas traités par un produit, comprend 2 √N animaux, N étant égal au nombre total de souris traitées par un produit.
(§5) Enfin, tous les essais sont conduits parallèlement à l'étude d'un lot appelé "contrôle positif" de 10 animaux qui est traité par une molécule active, variable selon le protocole choisi, dans les mêmes conditions que les lots traités par le produit à tester, afin de valider l'essai.
(§6) L'activité antitumorale est évaluée en considé-rant l'augmentation du temps de survie des animaux traités par rapport à celui des animaux du lot "contrôle négatif" selon la formule : [formula]
(§7) Un composé est considéré comme étant actif lorsque la valeur du rapport T/C est égale ou supérieure à 125 % selon le protocole retenu. Il est toxique lorsque cette valeur est égale ou inférieure à 85 %. Le produit est également considéré comme toxique lorsque la variation pondérale, exprimée en grammes et calculée par la formule : Poids moyen du lot mesuré au jour 5 -poids moyen du même lot au jour 1 est égale ou inférieure à - 4 g.
a) Test de la leucémie P 388 (GERAN et al., Cancer Chemother, 1972, 2, 07-57).
Les essais sont effectués avec des souris hybrides CDF 1 inoculées par voie intrapéritonéale avec 10⁶ cellules leucémiques de la lignée P 388. Le composé à tester est administré pendant 5 jours (J1-J5). Le contrôle positif du test est le 5-fluorouracile qui est administré dans les mêmes conditions. Le nombre d'animaux survivants est évalué au jour J 40. Un composé est considéré comme étant actif lorsque le rapport T/C est supérieur à 127 %.

leucémie L 1210 = assay: In vivo antitumour activity, L 1210 leukemia test; set-up: species or system souris hybrides CDF₁; settings: for Nombre de survivants: survivors at J 30
From the text: as §1, §2, §3, §4, §5, §6, §7
b) Test de la leucémie L 1210 (GERAN et al., Cancer Chemother, 1972, 2, 07-57).
Les essais sont effectués avec des souris hybrides CDF₁ inoculées avec 10⁵ cellules leucémiques de la lignée L 1210. Le composé à tester est administré pendant 5 jours (J₁-J₅).Le contrôle positif du test est le 5-fluorouracile administré dans les mêmes conditions. Le nombre d'animaux survivants est évalué au jour J 30. Un composé est considéré comme étant actif lorsque le rapport T/C est supérieur ou égal à 125 %.

mélanome B 16 = assay: In vivo antitumour activity, B 16 melanoma test; set-up: species or system souris hybrides BDF₁; settings: B 16 melanoma; for Nombre de survivants: survivors at J 60
From the text: as §1, §2, §3, §4, §5, §6
Le produit est également considéré comme toxique lorsque la variation pondérale, exprimée en grammes et calculée par la formule : Poids moyen du lot mesuré au jour 5 -poids moyen du même lot au jour 1 est égale ou inférieure à - 4 g.
Les essais sont effectués avec des souris hybrides BDF₁ inoculées avec 0,5 ml d'un homogénat de mélanome B 16 réalisé à partir de 1 g de tumeur dans 10 ml de sérum physiologique. Le composé à tester est administré pendant 9 jours (J₁-J₉).Le contrôle positif du test est le Cis-Platine administré dans les mêmes conditions. Le nombre d'animaux survivants est évalué au jour J 60.

[3] = Mus musculus, P388, ip, P 388, CDF 1 mice, 5 mg/kg i.p. J1-J5, read-out: T/C %
[4] = L 1210, CDF₁ mice, 5 mg/kg i.p. J1-J5
[5] = L 1210, CDF₁ mice, 10 mg/kg i.p. J1-J5
[6] = BDF₁ mice, 2,5 mg/kg i.p. J1-J9
[7] = L 1210, CDF₁ mice, 20 mg/kg i.p. J1-J5
[8] = L 1210, CDF₁ mice, 30 mg/kg i.p. J1-J5
[9] = L 1210, CDF₁ mice, 1,25 mg/kg i.p. J1-J5
[10] = L 1210, CDF₁ mice, 2,5 mg/kg i.p. J1-J5
[11] = L 1210, CDF₁ mice, 7,5 mg/kg i.p. J1-J5
[12] = BDF₁ mice, 0,625 mg/kg i.p. J1-J9
[13] = BDF₁ mice, 1,25 mg/kg i.p. J1-J9

With `CCN(CC)CCCNc1nc2ccccc2c2c1c1cc(O)ccc1n2C` [Dérivé N°3] the “mortalité évaluée au septième jour après l'administration” value [1] was “aucune mortalité”, the IC50 [2] was 60 nM and the response vs control in vivo at 5 mg/kg (leucémie P 388; [3]) was 155%. The response vs control in vivo at 10 mg/kg (leucémie P 388; Mus musculus, P388, ip, P 388, CDF 1 mice, 10 mg/kg i.p. J1-J5, read-out: T/C %) was 147%, the response vs control in vivo at 20 mg/kg (leucémie P 388; Mus musculus, P388, ip, P 388, CDF 1 mice, 20 mg/kg i.p. J1-J5, read-out: T/C %) was 149% and the Nombre de survivants (leucémie P 388; P 388, CDF 1 mice, 5 mg/kg i.p. J1-J5) was 0. For the same molecule, the Nombre de survivants (leucémie P 388; P 388, CDF 1 mice, 10 mg/kg i.p. J1-J5) was 0, the Nombre de survivants (leucémie P 388; P 388, CDF 1 mice, 20 mg/kg i.p. J1-J5) was 0 and the “Variation pondérale en g” value (leucémie P 388; 5 mg/kg) was “+ 1,0 g”. The “Variation pondérale en g” value (leucémie P 388; 10 mg/kg) was “- 0,6 g”, the “Variation pondérale en g” value (leucémie P 388; 20 mg/kg) was “- 2,2 g” and the “Jour médian de survie” value (leucémie L 1210; [4]) was 10,6. For the same molecule, the T/C % (leucémie L 1210; [4]) was 129%, the Nombre de survivants (leucémie L 1210; [4]) was 0 and the “Jour médian de survie” value (leucémie L 1210; [5]) was 11,3. For the same molecule, the T/C % (leucémie L 1210; [5]) was 138%, the Nombre de survivants (leucémie L 1210; [5]) was 0 and the “Jour médian de survie” value (mélanome B 16; [6]) was 36. It also gave a T/C % (mélanome B 16; [6]) of 138% and a Nombre de survivants (mélanome B 16; [6]) of 0.

For `CCN(CC)CCCNc1nc2ccccc2c2[nH]c3ccc(O)cc3c12` [Dérivé N°11, (diéthylamino-3 propylamino)-6 hydroxy-8 11-H indolo[3,2-c]quinoléine], the “mortalité évaluée au septième jour après l'administration” value [1] was “aucune mortalité”, the IC50 [2] was 130 nM and the response vs control in vivo at 5 mg/kg (leucémie P 388; [3]) was 154%. The response vs control in vivo at 1.25 mg/kg (leucémie P 388; Mus musculus, P388, ip, P 388, CDF 1 mice, 1,25 mg/kg i.p. J1-J5, read-out: T/C %) was 142%, the response vs control in vivo at 2.5 mg/kg (leucémie P 388; Mus musculus, P388, ip, P 388, CDF 1 mice, 2,5 mg/kg i.p. J1-J5, read-out: T/C %) was 152% and the response vs control in vivo at 15 mg/kg (leucémie P 388; Mus musculus, P388, ip, P 388, CDF 1 mice, 15,0 mg/kg i.p. J1-J5, read-out: T/C %) was 146%. For the same molecule, the “Variation pondérale en g” value (leucémie P 388; 5 mg/kg) was “+ 0,6 g”, the “Jour médian de survie” value (leucémie L 1210; [4]) was 14,25 and the T/C % (leucémie L 1210; [4]) was 160%. For the same molecule, the Nombre de survivants (leucémie L 1210; [4]) was 0, the “Jour médian de survie” value (leucémie L 1210; [5]) was 12,25 and the T/C % (leucémie L 1210; [5]) was 138%. For the same molecule, the Nombre de survivants (leucémie L 1210; [5]) was 0, the “Jour médian de survie” value (leucémie L 1210; [7]) was 11,7 and the T/C % (leucémie L 1210; [7]) was 131%. The Nombre de survivants (leucémie L 1210; [7]) was 0, the “Jour médian de survie” value (leucémie L 1210; [8]) was 8,3 and the T/C % (leucémie L 1210; [8]) was 93%. For the same molecule, the Nombre de survivants (leucémie L 1210; [8]) was 0, the “Jour médian de survie” value (leucémie L 1210; [9]) was 10,9 and the T/C % (leucémie L 1210; [9]) was 122%. The Nombre de survivants (leucémie L 1210; [9]) was 0, the “Jour médian de survie” value (leucémie L 1210; [10]) was 12,75 and the T/C % (leucémie L 1210; [10]) was 143%. For the same molecule, the Nombre de survivants (leucémie L 1210; [10]) was 0, the “Jour médian de survie” value (leucémie L 1210; [11]) was 12,3 and the T/C % (leucémie L 1210; [11]) was 138%. The Nombre de survivants (leucémie L 1210; [11]) was 0, the “Jour médian de survie” value (mélanome B 16; BDF₁ mice, 5 mg/kg i.p. J1-J9) was 31 and the T/C % (mélanome B 16; BDF₁ mice, 5 mg/kg i.p. J1-J9) was 132%. The Nombre de survivants (mélanome B 16; BDF₁ mice, 5 mg/kg i.p. J1-J9) was 0, the “Jour médian de survie” value (mélanome B 16; [12]) was 29 and the T/C % (mélanome B 16; [12]) was 123%. The Nombre de survivants (mélanome B 16; [12]) was 0, the “Jour médian de survie” value (mélanome B 16; [13]) was 40 and the T/C % (mélanome B 16; [13]) was 170%. The Nombre de survivants (mélanome B 16; [13]) was 1, the “Jour médian de survie” value (mélanome B 16; [6]) was 38 and the T/C % (mélanome B 16; [6]) was 162%. The Nombre de survivants (mélanome B 16; [6]) was 2.
